The values that follow come from patent publication EP1137386B1, “USE OF TRICLOSAN AS AN AN[…]” (Jawaharlal Nehru Centre For Advanced Scientific Research, priority 1999, dated 2001).

In one assay the test system is Plasmodium berghei. Briefly: Protection of mice against malaria after administration in vivo (P. berghei infected mice). The note with it: for mice survived till day 14 / mice survived till 14th day: subcutaneously in DMSO, day 1 of infection and next 6 days, P. berghei infected male swiss mice. Further details: species or system Swiss mice. From the text: The present invention involves the use of triclosan for the manufacture of an antimalarial agent to inhibit the growth of the murine malaria parasite Plasmodium berghei as well. The effect of various concentration of triclosan in controlling parasitemia is monitored in Plasmodium berghei infected mice. • 1. Plasmodium berghei infection: P. berghei parasite is maintained in Swiss male mice through serial blood passage. • 2. Triclosan treatment: Swiss mice (5 animals/group) are infected on day zero with about 10^6 infected red blood cells (IRBC). The animals are kept under observation to record parasitemia and mortality. Parasitemia is determined by counting 10^3 red cells in a thin blood smear stained with Giesma and expressed as number of parasitized cells/100 erythrocytes. The animals given only dimethylsulfoxide (DMSO) are used as controls and referred to as untreated animals. Level of parasitemia is >1% on the first day of triclosan treatment. Parasitemia is monitored every 24 hrs, for 7-8 days.
Male swiss mice were infected with P. berghei. The animals were kept under observation and parasitemia was recorded daily. Triclosan (0.8, 1.6, 3.0, 8.0, 14.0 and 28.0 mg/kg body weight of mice respectively) in DMSO was given subcutaneously on day 1 of infection when parasitemia was>1% and subsequently for the next 6 days. Experiments with triclosan were conducted with a group of five animals, each for the dosages mentioned above. DMSO was given to control animals (6) and were referred to as untreated animals. Parasitemia and mortality were recorded till the untreated mice died. Typically all the six mice in the control group died by day 9 of infection while 3, 3 and 4 mice out of 5 treated with 0.8, 1.6 and 3.0 mg triclosan/kg (body weight), survived till day 14. All the mice (5 out of 5) survived till 14th day when treated with 8.0, 14.0 and 28.0 mg triclosan/kg (body weight).

The subject of assay [1] is cell free system for the synthesis of fatty acids of Plasmodium falciparum. Briefly: Incorporation of [14C] malonyl-CoA in fatty acids in cell free system, scintillation counting and TLC/autoradiography. The format is biochemical. On the procedure:
For cell free fatty acid synthesis in E.Coli, See Δ P.W. Majerus et al. (1968), Methods in Enzymol, 14, 43-52.
The pellet was washed four to five times with cold phosphate buffer saline and after washing, the pellet was suspended in 3.0 ml of phosphate buffer saline and equal volume of 0.15% saponin was added to isolate free parasites. (See specific embodiments). The late ring stage (trophozoites) of the parasites thus isolated were washed once thoroughly with PBS and the cells suspended in 0.4 ml of 1 mM potassium phosphate buffer pH 7.0 and sonicated for 15 sec. The cell lysate (2.0 mg cell extract protein) thus prepared was mixed with 200 µl of 200 mM of potassium phosphate buffer pH 7.0 containing 70 uM acetyl CoA, 8 mM glucose-6-phosphate, 3 mM each of NADH and NADPH, 0.4 mM EDTA, 4 units of glucose-6-phosphate dehydrogenase, 45 uM [^14C]malonyl-CoA (specific activity 54.2 mCi/mmol, DuPont) and 3 mM dithiothreitol (DTT). To this 200 µg of DTT reduced acyl carrier protein (ACP) from E. coli (Sigma) in 25 µl of 75 mM phosphate buffer was added. The reaction mixture was incubated for 30 min at 37°C. […] A part (25 µl) of the sample in methanol was counted by scintillation counting to determine also the extent of incorporation of [^14C] malonyl-CoA in fatty acids both in the presence and absence of Triclosan.

The subject of another assay is Plasmodium falciparum. Nature of the assay: In vitro effect on growth of Plasmodium falciparum (parasitemia and morphology in Giemsa stained smears). In kind it is cell-based. The note with it: P. falciparum cultures in human erythrocytes. On the procedure: Plasmodium falciparum cultures with 5-6% parasitemia are diluted with washed 50% suspension of red blood cells and CRPMI so that the initial parasitemia becomes 1% and hematocrit 2%. 1.5 millilitres of this diluted infected cell suspension is placed in flat bottom vials, which are kept in a desiccator equipped with a stopcock. A candle is lit and the cover of the desiccator is put on with the stopcock open. When the candle goes out, the stopcock is closed. This is a simple but effective way to produce an atmosphere of low O2(1-5%) and high CO2 content (7%). Fresh medium is provided daily by withdrawing the supernatant and supplementing cells with 1.25 millilitres of CRPMI. Fresh erythrocytes are added every third or fourth day when the parasitemia reaches 6-8%, bringing it down to 1%. In cultures, all stages of the asexual cycle are seen at any one time, since the cultures have lost some of the synchronicity characteristic of P. falciparum in man. Delicate rings with two chromatin dots are common. Schizonts or segmenters show 15-18 merozoites, the same numbers seen in material from human infections.
This is done by observing the stained smear of infected red blood cells under the microscope in oil immersion. The following stages of Plasmodium falciparum with their characteristic features can be seen. These stages are as follows: • 1. […]

The test system of the next assay is P. falciparum. Nature of the assay: Uptake of [35S] methionine as an index of inhibition of parasite growth. The note with it: P. falciparum in culture, different concentrations of triclosan (Fig. 5). In kind it is cell-based. On the procedure:
Uptake of [^35S] methionine, NEN, DuPont, (specific activity 1175 Ci/mmol) is used as an index of parasite growth. The final isotope concentration to be added in each well is 100 µCi/ml culture. Before an hour of total incubation period (24, 48, or 72 h) 20 µl of the isotope in culture medium is added to each well and incubated for an additional 1 hr. After incubation, contents of the well are pipetted into microcentrifuge tubes kept on ice. The samples are spun at 3000 g for 10 sec. The supernatant is discarded and the pellet washed twice in 1.0 ml of 0.9% NaCl. The pellet is lysed with 50 µl distilled water and spotted onto Whatman No. 3 discs (presoaked in 10% TCA with cold methionine and dried). After spotting, these discs are allowed to dry and then they are treated with hot TCA, cold TCA (10% throughout), alcohol ether (2:1, v/v) and finally with ether. […] The discs are air dried after ether treatment, and counted in optiphase 'Hisafe' scintillation fluid (Wallac Scintillation Products, U.K.) in a Wallac β-counter (Model 1409, Finland).
The drug and parasites were aliquoted in required number of rows of wells in 96 well titre plates as described in example 1. […] After ether treatment, the discs were air dried, placed in scintillation fluid phase III from Wallac and counted in Wallac β-counter.

Molecules are shown by their SMILES.

With `Oc1cc(Cl)ccc1Oc1ccc(Cl)cc1Cl` [triclosan, 2,4,4'-trichloro-2'-hydroxydiphenyl ether], the results for the “mice survived till day 14” value with Plasmodium berghei (0.8 mg/kg body weight), in the assay on Plasmodium berghei (1.6 mg/kg body weight) and with Plasmodium berghei (3.0 mg/kg body weight) were 3 mice out of 5, 3 mice out of 5 and 4 mice out of 5, respectively. In addition, the “mice survived till 14th day” value with Plasmodium berghei (8.0 mg/kg body weight), in the assay with Plasmodium berghei (14.0 mg/kg body weight) and with Plasmodium berghei (28.0 mg/kg body weight) was 5 out of 5 each time. Also, the mortality result with Plasmodium berghei (P. berghei infected Swiss mice, untreated animals die by 8 days after the infection) was “delayed mortality is observed in treated animals depending on dose”. Besides, the parasitemia result with Plasmodium berghei (injection in mice infected with P. berghei) is recorded as “able to curtail the parasitemia”. Also, the “incorporation of [^14C] malonyl CoA in fatty acids” value in assay [1] (cell free system, 0.15, 0.225, 0.3, 0.6 and 1.2 µg of triclosan, 30 min at 37°C) is “inhibits incorporation of [^14C] malonyl CoA in fatty acids”. Also, in assay [1] (cell free system, TLC with autoradiography), the “longer chain fatty acids synthesized (elongation reaction)” value was “progressive decline in the longer chain fatty acids”. Moreover, the “growth of the human malaria parasite in vitro” value with Plasmodium falciparum is “inhibits the growth of the human malaria parasite in vitro in a very potent manner”. In addition, in the assay with P. falciparum, the “inhibition of protein synthesis, uptake of (^35S) methionine” value is “reduced uptake of (^35S) methionine”.
